Test system: MC38 cells + TGF-β1-treated murine colon fibroblasts (myoMCF)
Assay: Isograft model MC38 + myoMCF (myoCAF-high tumours)
Type: in vivo, C57/BL6 female mice
Conditions: AZD0156, myoCAF-high MC38 tumours
Protocol: SMA immunohistochemistry (IHC; Sigma Aldrich; A2547) on FFPE tissues was performed as previously: in brief, tissues were fixed in 4% paraformaldehyde and embedded in paraffin. 4 μm sections were de-paraffinized, rehydrated and antigen retrieved for 20 minutes at 97° C. using a predefined program on the Dako PT links. Antigen retrieval was performed using Envision FLEX High pH. Endogenous peroxidase activity was blocked using 3% hydrogen peroxide. Mouse Ig blocking reagent (M.O.M kit vector labs) was applied for 1 hour. Primary antibody incubation (1:100) in M.O.M diluent (vector labs) was for 20 minutes. […] Images were captured using an Olympus CKX41 microscope with Cell B imaging software. % area of staining was calculated using Fiji software (java) by running the ‘color deconvolution’ tool analyzing H DAB. […] The mean was calculated from 2 or 3 mice/experimental group.
Quantification of SMA staining in mouse tumours was carried out using color thresholding and deconvolution in Fiji. […]
CD8 and CD4 IHC was performed on frozen tissue embedded in OCT using [YTS169 (CD8; in house) and RM4-5 (CD4; BD) (FIG. 6c & FIG. 12e). […] CD8 and CD4 T-cells were counted from ten randomly selected fields of view (FoV) from the tumour by a consultant pathologist (GJT). […]

CN(C)CCCOc1ccc(-c2ccc3ncc4c(c3c2)n(C2CCOCC2)c(=O)n4C)cn1 [AZD0156]
CD4 T-cell infiltration (IHC): unaffected | location of CD8 T-cells, tumour periphery to tumour core (IHC): significant relocation
